Measured values from patent US20250179049A1, “SALTS OF HETEROCYCLIC INHIBITORS OF MONOCARBOXYLATE TRANSPORTER 4 FOR THE TREATMENT OF DISEASE” (Vettore, LLC, priority 2022, published 2025).
Structures can show the parent of a compound that is named as a salt. Where two headings read alike, the source gives them in different places.

Experiments:
[1] = Rat pharmacokinetics, oral gavage; type: in vivo, Sprague-Dawley rats; parameters: AUClast/D: unit not given here; settings: for MRT inf: read-out: MRTInf—obs; for AUC(0-t) / Cmax / Tmax / AUC0-24 salt/ AUC0-24 free/ / AUC0-24: rat
Procedure: Groups, Dosing, and Collection. […] Three rats per group were perorally administered 20, 60, or 200 mg Compound 1 free acid or 25, 75, or 250 mg in 0.5% methylcellulose in Saline for a final concentration of 2, 6, or 20 mg/mL Compound 1 free acid or 2.5, 7.5, or […]. Plasma was collected at 5 min, 15 min, 30 min, 1 hour, 2 hour, 4 hour, 6 hour, 8 hour, and 24 hour post dose via jugular vein.
Stock and Dose Prep. Stock solutions were prepared by dissolving 2.47 mg of Compound 1 (free acid) in 2.470 mL DMSO with vortexing to obtain 1 mg/mL solution of Compound 1 (free acid), or 2.09 mg of Compound 1 (Tris salt) in […] DMSO with vortexing to obtain 1 mg/mL solution of Compound 1 (Tris salt). Dosing solutions were prepared by vortexing/sonicating the following solids in solvent:
LC MS-MS Analysis. Liquid Chromatography with tandem mass spectrometry was used to determine plasma concentrations of Compound 1 Free Acid and Compound 1 Tris Salt in plasma samples collected at prescribed time points.
Appropriate serial concentrations of working solutions were achieved by diluting stock solution of analyte with 50% acetonitrile in water solution. Five μL of working solutions (10, 20, 50, 100, 500, 1000, 5000, 8000, 10000 ng/mL) were added to 50 μL of the blank male SD Rat plasma to achieve calibration standards of 1˜1000 ng/ml (1, 2, 5, 10, 50, 100, 500, 800, 1000 ng/mL) in a total volume of 55 μL. Five quality control (QC) samples at 2 ng/mL, 5 ng/mL, 10 ng/mL, 50 ng/mL and 800 ng/mL for plasma were prepared independently of those used for the calibration curves. These QC samples were prepared on the day of analysis in the same way as calibration standards. 55 μL standards, 55 μL QC samples and 55 μL unknown samples (50 μL plasma/blood with 5 μL blank solution) were added to 200 μL of methanol containing internal standard (dexamethasone) mixture for precipitating protein respectively, and vortexed for 30 seconds. After centrifugation at 4° C. and 4000 rpm for 15 minutes. The supernatant was diluted with water with a ratio of 1:2. 2 μL of the supernatant was injected into the LC/MS/MS system for quantitative analysis.
Instrumentation included HALO 90A C18 2.7 μm 2.1×50 mm HPLC column, a Prominence degasser DGU-20A5R(C), liquid chromatograph Shimadzu LC-30AD with communications bus module CBM-20A and Auto SIL-20AC HT; and an AB Sciex Triple Quad 5500 LC/MS/MS instrument.

[2] = 28-day repeat-dose toxicity study in rats; type: in vivo; settings: female, Sprague Dawley, rat, in vivo, 75 mg/kg
Procedure: Compound 1 was administered to Sprague Dawley rats by oral gavage at doses of 25, 75, and 250 mg/kg/day (females) and 40, 120, and 400 mg/kg/day (males) for 28 days. Compound 1-related mortality occurred in 8 of the 15 toxicity males administered 400 mg/kg/day beginning on Day 8 through 24. […] Target tissues included bone marrow, spleen, thymus, liver, lymph nodes, epididymides, seminal vesicles, prostate, testes, uterus, and ovaries.
(§1) Compound 1 tris salt was evaluated for safety in 7- and 28-day studies in rats and dogs. […] The NOAELs for this rat study were 120 mg/kg/day for males and 75 mg/kg/day for females. […] The NOAEL determined in the 28-day dog GLP study was 150 mg/kg/day. These correspond to human equivalent doses (HEDs) of: • Rat: 75 mg/kg×0.16=12 mg/kg • Dog: 150 mg/kg×0.54=81 mg/kg

in vivo = test: in vivo; parameters: species or system beagle dogs; settings: both sexes, beagle, dog, 150 mg/kg
Procedure: Compound 1 was administered to beagle dogs by oral gavage in a range finding study at doses of 30, 79, 240, or 790 mg/kg. […] Compound 1 was administered at doses of 10, 50, and 150 mg/kg/day in the pivotal repeat dose toxicity studies for 28 days.
as §1

[3] = Sprague-Dawley, plasma, rat PO 25 mg/kg, female, mean
[4] = Sprague-Dawley, plasma, rat PO 25 mg/kg, male, mean
[5] = Sprague-Dawley, plasma, rat PO 75 mg/kg, female, mean
[6] = Sprague-Dawley, plasma, rat PO 75 mg/kg, male, mean
[7] = Sprague-Dawley, plasma, rat PO 250 mg/kg, female, mean
[8] = Sprague-Dawley, plasma, rat PO 250 mg/kg, male, mean
[9] = Female, PO/20 mg/kg, Mean ± SD, 20 mg/kg
[10] = Female, PO/60 mg/kg, Mean ± SD, 60 mg/kg
[11] = Female, PO/200 mg/kg, Mean ± SD, 200 mg/kg

`CC(C)(OCc1cc(-c2cccc(OC3CCC3)c2)n(-c2ccccc2N2CCC2)n1)C(=O)O` [Compound 1 tris salt, tris salt of 2-((1-(2-(azetidin-1-yl)phenyl)-5-(3-cyclobutoxyphenyl)-1H-pyrazol-3-yl)methoxy)-2-methylpropanoic acid] gave an AUC(0-inf) [1, 3] of 1040 µg·h/mL, a half-life [1, 3] of 6.53 h and an MRT inf [1, 3] of 9.9 h. For the same compound, the AUC(0-inf) [1, 4] was 357 µg·h/mL, the half-life [1, 4] was 3.24 h and the MRT inf [1, 4] was 6.1 h. It also gave an AUC(0-inf) [1, 5] of 3270 µg·h/mL, a half-life [1, 5] of 9.6 h and an MRT inf [1, 5] of 14.7 h. It also gave an AUC(0-inf) [1, 6] of 910 µg·h/mL, a half-life [1, 6] of 2.91 h and an MRT inf [1, 6] of 6.03 h. For the same compound, the AUC(0-inf) [1, 7] was 16300 µg·h/mL, the half-life [1, 7] was 40.5 h and the MRT inf [1, 7] was 62 h. For the same compound, the AUC(0-inf) [1, 8] was 2890 µg·h/mL, the half-life [1, 8] was 12.2 h and the MRT inf [1, 8] was 18.6 h. The AUC(0-t) ([1]; female, Sprague-Dawley, plasma, po, 25 mg/kg, rat PO 25 mg/kg, female, mean, read-out: AUClast) was 947 µg·h/mL, the Cmax ([1]; female, Sprague-Dawley, plasma, po, 25 mg/kg, rat PO 25 mg/kg, female, mean, read-out: Cmax) was 68.6 µg/mL and the Tmax ([1]; female, Sprague-Dawley, plasma, po, 25 mg/kg, rat PO 25 mg/kg, female, mean, read-out: Tmax) was 6 h. The AUC(0-t) ([1]; female, Sprague-Dawley, plasma, po, 75 mg/kg, rat PO 75 mg/kg, female, mean, read-out: AUClast) was 2540 µg·h/mL, the Cmax ([1]; female, Sprague-Dawley, plasma, po, 75 mg/kg, rat PO 75 mg/kg, female, mean, read-out: Cmax) was 171 µg/mL and the Tmax ([1]; female, Sprague-Dawley, plasma, po, 75 mg/kg, rat PO 75 mg/kg, female, mean, read-out: Tmax) was 5.33 h. The AUC(0-t) ([1]; female, Sprague-Dawley, plasma, po, 250 mg/kg, rat PO 250 mg/kg, female, mean, read-out: AUClast) was 4470 µg·h/mL, the Cmax ([1]; female, Sprague-Dawley, plasma, po, 250 mg/kg, rat PO 250 mg/kg, female, mean, read-out: Cmax) was 223 µg/mL and the Tmax ([1]; female, Sprague-Dawley, plasma, po, 250 mg/kg, rat PO 250 mg/kg, female, mean, read-out: Tmax) was 6.67 h. For the same compound, the “Total drug exposure across time (AUClast and AUCInf) compared with free acid” value ([1]; male and female rats) was “higher”, the AUC(0-t) ([1]; male, Sprague-Dawley, plasma, po, 25 mg/kg, rat PO 25 mg/kg, male, mean, read-out: AUClast) was 352 µg·h/mL and the Cmax ([1]; male, Sprague-Dawley, plasma, po, 25 mg/kg, rat PO 25 mg/kg, male, mean, read-out: Cmax) was 44.2 µg/mL. The Tmax ([1]; male, Sprague-Dawley, plasma, po, 25 mg/kg, rat PO 25 mg/kg, male, mean, read-out: Tmax) was 2.86 h, the AUC(0-t) ([1]; male, Sprague-Dawley, plasma, po, 25 mg/kg, Male, PO/25 mg/kg, Mean ± SD, read-out: AUC0-24) was 352 µg·h/mL and the Cmax ([1]; male, Sprague-Dawley, plasma, po, 25 mg/kg, Male, PO/25 mg/kg, Mean ± SD, read-out: Cmax) was 44.2 µg/mL. The Tmax ([1]; male, Sprague-Dawley, plasma, po, 25 mg/kg, Male, PO/25 mg/kg, Mean ± SD, read-out: Tmax) was 2.9 ± 4.5 h, the AUC(0-t) ([1]; male, Sprague-Dawley, plasma, po, 75 mg/kg, rat PO 75 mg/kg, male, mean, read-out: AUClast) was 906 µg·h/mL and the Cmax ([1]; male, Sprague-Dawley, plasma, po, 75 mg/kg, rat PO 75 mg/kg, male, mean, read-out: Cmax) was 92.3 µg/mL. The Tmax ([1]; male, Sprague-Dawley, plasma, po, 75 mg/kg, rat PO 75 mg/kg, male, mean, read-out: Tmax) was 4 h, the AUC(0-t) ([1]; male, Sprague-Dawley, plasma, po, 75 mg/kg, Male, PO/75 mg/kg, Mean ± SD, read-out: AUC0-24) was 906 µg·h/mL and the Cmax ([1]; male, Sprague-Dawley, plasma, po, 75 mg/kg, Male, PO/75 mg/kg, Mean ± SD, read-out: Cmax) was 92.3 µg/mL. For the same compound, the Tmax ([1]; male, Sprague-Dawley, plasma, po, 75 mg/kg, Male, PO/75 mg/kg, Mean ± SD, read-out: Tmax) was 4 ± 2 h, the AUC(0-t) ([1]; male, Sprague-Dawley, plasma, po, 250 mg/kg, rat PO 250 mg/kg, male, mean, read-out: AUClast) was 2090 µg·h/mL and the Cmax ([1]; male, Sprague-Dawley, plasma, po, 250 mg/kg, rat PO 250 mg/kg, male, mean, read-out: Cmax) was 144 µg/mL. For the same compound, the Tmax ([1]; male, Sprague-Dawley, plasma, po, 250 mg/kg, rat PO 250 mg/kg, male, mean, read-out: Tmax) was 5.33 h, the AUC(0-t) ([1]; male, Sprague-Dawley, plasma, po, 250 mg/kg, Male, PO/250 mg/kg, Mean ± SD, read-out: AUC0-24) was 2090 µg·h/mL and the Cmax ([1]; male, Sprague-Dawley, plasma, po, 250 mg/kg, Male, PO/250 mg/kg, Mean ± SD, read-out: Cmax) was 144 µg/mL. The Tmax ([1]; male, Sprague-Dawley, plasma, po, 250 mg/kg, Male, PO/250 mg/kg, Mean ± SD, read-out: Tmax) was 5.3 ± 1.1 h, the AUClast/D ([1]; rat PO 25 mg/kg, female, mean) was 37897 and the “AUC—% Extrap—obs” value ([1]; rat PO 25 mg/kg, female, mean) was 9%. For the same compound, the AUClast/D ([1]; rat PO 25 mg/kg, male, mean) was 14077, the “AUC—% Extrap—obs” value ([1]; rat PO 25 mg/kg, male, mean) was 1.28% and the AUClast/D ([1]; rat PO 75 mg/kg, female, mean) was 33882. For the same compound, the “AUC—% Extrap—obs” value ([1]; rat PO 75 mg/kg, female, mean) was 18.5%, the AUClast/D ([1]; rat PO 75 mg/kg, male, mean) was 12078 and the “AUC—% Extrap—obs” value ([1]; rat PO 75 mg/kg, male, mean) was 0.473%. The AUClast/D ([1]; rat PO 250 mg/kg, female, mean) was 17869, the “AUC—% Extrap—obs” value ([1]; rat PO 250 mg/kg, female, mean) was 59.9% and the AUClast/D ([1]; rat PO 250 mg/kg, male, mean) was 8340. The “AUC—% Extrap—obs” value ([1]; rat PO 250 mg/kg, male, mean) was 26.5%, the “AUC0-24 salt/ AUC0-24 free/” value ([1]; Female, PO/20 mg/kg) was 1.07 and the AUC0-24 [1, 9] was 947,000 ± 135,000 ng h/mL. The Cmax [1, 9] was 68,600 ± 6400 ng/mL, the “AUC0-24 salt/ AUC0-24 free/” value ([1]; Female, PO/60 mg/kg) was 1.78 and the AUC0-24 [1, 10] was 2,540,000 ± 503,000 ng h/mL. The Cmax [1, 10] was 171,000 ± 11,600 ng/mL, the “AUC0-24 salt/ AUC0-24 free/” value ([1]; Female, PO/200 mg/kg) was 1.57 and the AUC0-24 [1, 11] was 4,470,000 ± 705,000 ng h/mL. The Cmax [1, 11] was 223,000 ± 29,900 ng/mL, the Tmax [1, 11] was 6.7 ± 1.1 h and the “AUC0-24 salt/ AUC0-24 free/” value ([1]; Male, PO/25 mg/kg) was 2.11. The “AUC0-24 salt/ AUC0-24 free/” value ([1]; Male, PO/75 mg/kg) was 2.03, the “AUC0-24 salt/ AUC0-24 free/” value ([1]; Male, PO/250 mg/kg) was 1.89 and the Human equivalent dose of NOAEL at 28 days [2] was 12 mg/kg. The Human equivalent dose of NOAEL at 28 days (in vivo) was 81 mg/kg.
